Experimental data as given in ChEMBL document CHEMBL1201861, “Genomics of Drug Sensitity in Cancer screening data, Wellcome Trust Sanger Institute”.
pIC50: −log10 of the molar value.

Assays:
Experiment in all cases: cells
P30-OHK = type: functional, cell-based; details: Homo sapiens;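 further: growth inhibition of the P30-OHK cell line, read out with a cell viability assay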
Description: SANGER: Inhibition of human P30-OHK cell growth in a cell viability assay.

Ramos-2G6-4C10 = type: functional, cell-based; details: Homo sapiens;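 further: growth inhibition of the cell line, measured by a cell viability read-out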
Description: SANGER: Inhibition of human Ramos-2G6-4C10 cell growth in a cell viability assay.

ES4 = type: functional, cell-based, Homo sapiens; details: Homo sapiens, ES4;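 further: growth inhibition of human ES4 cells, read out by a cell viability assay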
Description: SANGER: Inhibition of human ES4 cell growth in a cell viability assay.

NCI-H1395 = type: functional, cell-based, Homo sapiens; details: Homo sapiens, NCI-H1395;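 further: cell viability assay read-out quantifying reduced proliferation of human NCI-H1395 cells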
Description: SANGER: Inhibition of human NCI-H1395 cell growth in a cell viability assay.

SK-NEP-1 = type: functional, cell-based; details: Homo sapiens;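 further: growth inhibition of human SK-NEP-1 cells, read out by a cell viability assay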
Description: SANGER: Inhibition of human SK-NEP-1 cell growth in a cell viability assay.

U-87 MG = type: functional, cell-based, U-87MG ATCC; details: Homo sapiens;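 further: growth inhibition of the cells measured with a viability assay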
Description: SANGER: Inhibition of human U-87-MG cell growth in a cell viability assay.

IST-MEL1 = type: functional, cell-based, Homo sapiens; details: Homo sapiens, IST-MEL1;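 further: growth inhibition of the cell line, read out with a cell viability assay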
Description: SANGER: Inhibition of human IST-MEL1 cell growth in a cell viability assay.

SW684 = type: functional, cell-based, Homo sapiens; details: Homo sapiens, SW684;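 further: growth inhibition of human SW684 cells, measured by a cell viability assay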
Description: SANGER: Inhibition of human SW684 cell growth in a cell viability assay.

C8166 = type: functional, cell-based; details: Homo sapiens;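 further: growth inhibition of human C8166 cells measured by a cell viability assay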
Description: SANGER: Inhibition of human C8166 cell growth in a cell viability assay.

SF-268 = type: functional, cell-based, Homo sapiens; details: Homo sapiens, SF-268;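 further: growth inhibition of SF-268 cells determined with a cell viability assay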
NCI-H747 = type: functional, cell-based; details: Homo sapiens;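 further: growth inhibition of human NCI-H747 cells, read out by a cell viability assay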
COLO-668 = type: functional, cell-based, Homo sapiens; details: Homo sapiens, COLO-668
Description: SANGER: Inhibition of human COLO-668 cell growth in a cell viability assay.

LU-134-A = type: functional, cell-based; details: Homo sapiens
Description: SANGER: Inhibition of human LU-134-A cell growth in a cell viability assay.

NCI-H2126 = type: functional, cell-based, Homo sapiens; details: Homo sapiens, NCI-H2126;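 further: growth inhibition of the cancer cell line, determined with a cell viability readout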
Description: SANGER: Inhibition of human NCI-H2126 cell growth in a cell viability assay.

LS-513 = type: functional, cell-based, Homo sapiens; details: Homo sapiens, LS-513
Description: SANGER: Inhibition of human LS-513 cell growth in a cell viability assay.

QIMR-WIL = type: functional, cell-based; details: Homo sapiens;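 further: growth inhibition of QIMR-WIL cells, read out with a cell viability assay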
Description: SANGER: Inhibition of human QIMR-WIL cell growth in a cell viability assay.

A388 = type: functional, cell-based, Homo sapiens; details: Homo sapiens, A388;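 further: growth inhibition of human A388 cells, read out with a cell viability assay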
Description: SANGER: Inhibition of human A388 cell growth in a cell viability assay.

RH-1 = type: functional, cell-based, Homo sapiens; details: Homo sapiens, RH-1;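 further: growth inhibition of human RH-1 cells, read out with a cell viability assay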
NCI-H1092 = type: functional, cell-based; details: Homo sapiens;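 further: cell growth inhibition measured with a cell viability assay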
Description: SANGER: Inhibition of human NCI-H1092 cell growth in a cell viability assay.

KLE = type: functional, cell-based, Homo sapiens; details: Homo sapiens, KLE;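 further: growth inhibition of human KLE cells, read out with a cell viability assay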
Description: SANGER: Inhibition of human KLE cell growth in a cell viability assay.

| SMILES | pIC50 (P30-OHK) | pIC50 (Ramos-2G6-4C10) | pIC50 (ES4) | pIC50 (NCI-H1395) | pIC50 (SK-NEP-1) | pIC50 (U-87 MG) | pIC50 (IST-MEL1) | pIC50 (SW684) | pIC50 (C8166) | pIC50 (SF-268) | pIC50 (NCI-H747) | pIC50 (COLO-668) | pIC50 (LU-134-A) | pIC50 (NCI-H2126) | pIC50 (LS-513) | pIC50 (QIMR-WIL) | pIC50 (A388) | pIC50 (RH-1) | pIC50 (NCI-H1092) | pIC50 (KLE) |
| --- | --- | --- | --- | --- | --- | --- | --- | --- | --- | --- | --- | --- | --- | --- | --- | --- | --- | --- | --- | --- |
| C=C1C(=O)O[C@@H]2C3O[C@]3(C)CC/C=C(\C)CC[C@@H]12 (some centres undefined) | < 5.30 | < 5.30 | < 5.30 | < 5.30 | < 5.30 | < 5.30 | < 5.30 | < 5.30 | < 5.30 | < 5.30 | < 5.30 | < 5.30 | < 5.30 | < 5.30 | < 5.30 | < 5.30 | < 5.30 | < 5.30 | < 5.30 | – |
| CC1=C2C[C@H]3[C@@H](CC=C4C[C@@H](O)CC[C@@]43C)[C@@H]2CC[C@]12O[C@@H]1C[C@H](C)CN[C@H]1[C@H]2C [CYCLOPAMINE] | < 4.80 | < 4.80 | < 4.80 | < 4.80 | < 4.80 | < 4.80 | < 4.80 | < 4.80 | < 4.80 | < 4.80 | < 4.80 | < 4.80 | < 4.80 | < 4.80 | 4.94 | < 4.80 | < 4.80 | < 4.80 | < 4.80 | – |
| CS(=O)(=O)CCNCc1ccc(-c2ccc3ncnc(Nc4ccc(OCc5cccc(F)c5)c(Cl)c4)c3c2)o1 [LAPATINIB] | < 5.70 | < 5.70 | < 5.70 | < 5.70 | < 5.70 | < 5.70 | < 5.70 | < 5.70 | < 5.70 | < 5.70 | < 5.70 | < 5.70 | < 5.70 | < 5.70 | < 5.70 | < 5.70 | 6.14 | < 5.70 | < 5.70 | – |
| CCc1nc(N)nc(N)c1-c1ccc(Cl)cc1 [PYRIMETHAMINE] | < 4.70 | 5.25 | 5.51 | < 4.70 | 5.91 | < 4.70 | 5.36 | < 4.70 | < 4.70 | 5.44 | < 4.70 | < 4.70 | < 4.70 | < 4.70 | < 4.70 | 5.18 | < 4.70 | < 4.70 | < 4.70 | – |
| O=C(/C=C/c1ccccc1)NC(NC(=S)Nc1cccc2cccnc12)C(Cl)(Cl)Cl (centres undefined) [SALUBRINAL] | < 4.80 | 5.00 | < 4.80 | < 4.80 | < 4.80 | < 4.80 | < 4.80 | < 4.80 | < 4.80 | < 4.80 | < 4.80 | < 4.80 | < 4.80 | < 4.80 | < 4.80 | < 4.80 | < 4.80 | < 4.80 | < 4.80 | – |
| CN1CCN(CCOc2cc(OC3CCOCC3)c3c(Nc4c(Cl)ccc5c4OCO5)ncnc3c2)CC1 [SARACATINIB] | < 5.70 | < 5.70 | < 5.70 | < 5.70 | < 5.70 | < 5.70 | < 5.70 | < 5.70 | < 5.70 | < 5.70 | < 5.70 | < 5.70 | < 5.70 | < 5.70 | < 5.70 | < 5.70 | < 5.70 | < 5.70 | < 5.70 | < 5.70 |
| CO[C@H]1C[C@@H]2CC[C@@H](C)[C@@](O)(O2)C(=O)C(=O)N2CCCC[C@H]2C(=O)O[C@H]([C@H](C)C[C@@H]2CC[C@@H](O)[C@H](OC)C2)CC(=O)[C@H](C)/C=C(\C)[C@@H](O)[C@@H](OC)C(=O)[C@H](C)C[C@H](C)/C=C/C=C/C=C/1C [SIROLIMUS] | < 7.00 | 8.84 | > 9.41 | < 7.00 | 8.06 | < 7.00 | < 7.00 | < 7.00 | < 7.00 | < 7.00 | < 7.00 | < 7.00 | < 7.00 | < 7.00 | < 7.00 | 7.93 | 7.35 | < 7.00 | < 7.00 | < 7.00 |
| CNC(=O)c1cc(Oc2ccc(NC(=O)Nc3ccc(Cl)c(C(F)(F)F)c3)cc2)ccn1 [SORAFENIB] | < 5.40 | < 5.40 | < 5.40 | < 5.40 | < 5.40 | < 5.40 | < 5.40 | < 5.40 | < 5.40 | < 5.40 | < 5.40 | < 5.40 | < 5.40 | < 5.40 | < 5.40 | < 5.40 | 5.80 | < 5.40 | < 5.40 | – |
| CCC(=O)N1CCN(c2ccc(-n3c(=O)ccc4cnc5ccc(-c6cnc7ccccc7c6)cc5c43)cc2C(F)(F)F)CC1 [TORIN1] | < 5.92 | 7.56 | 7.08 | < 5.92 | 6.79 | < 5.92 | 7.75 | < 5.92 | < 5.92 | 7.01 | 7.63 | 6.53 | 6.26 | 6.94 | 6.41 | 7.09 | 7.16 | 6.55 | < 5.92 | 7.18 |
| Cc1cc(Nc2cc(N3CCN(C)CC3)nc(Sc3ccc(NC(=O)C4CC4)cc3)n2)n[nH]1 [TOZASERTIB] | < 5.70 | < 5.70 | 6.04 | < 5.70 | 5.92 | < 5.70 | < 5.70 | < 5.70 | < 5.70 | < 5.70 | < 5.70 | < 5.70 | < 5.70 | < 5.70 | < 5.70 | 6.37 | 6.47 | < 5.70 | < 5.70 | < 5.70 |
